# Experimental data taken from patent publication US11230542B2, “Inhibitors of integrated stress response pathway” (Praxis Biotech LLC, priority 2017, dated 2022).
# Like-named read-outs stand apart in the source and are kept apart here.
# Columns and labels:
# ATF4 = ATF4 expression inhibition assay (thapsigargin-stressed HEK293T cells, western blot); assay type: cell-based; conditions: Homo sapiens, HEK-293T
# Procedure, shortened: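 HEK293T cells treated with thapsigargin (Tg) plus test compound (100 nM or 1 μM) for 3 hours, then lysed; ATF4 measured by western blot with ECL and densitometry. % inhibition normalized to Tg alone (0%) and untreated cells (100%); IC50 also calculated.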
# CHO cells = assay: Protein translation assay (puromycin incorporation in CHO cells, unstressed or Tg-stressed); assay type: cell-based, Chinese hamster; conditions: Cricetulus griseus, media alone 100%
# Procedure, shortened: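 CHO cells pretreated 2 h with 1 μM compound (unstressed), or 1 h with 100 nM or 1 μM then co-treated with 300 nM Tg. Pulse-labelled with 10 μg/ml puromycin for 30 min, then anti-puromycin western blot with densitometry. Unstressed values normalized to media alone (100%); stressed recovery scaled between media alone (100%) and Tg alone (0%).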
compound,measurement,setting,value
"O=C(COc1ccc(Cl)cc1)N[C@H]1CC[C@H](NC[C@@H](O)COc2ccc(Cl)cc2)CC1 (single isomer, unassigned) [Compound 3, (+)-2-(4-chlorophenoxy)-N-(4-((3-(4-chlorophenoxy)-2-hydroxypropyl)amino)cyclohexyl)acetamide]",IC50,"ATF4; 3 h with 100 nM Tg, test compound 1 nM to 1 μM",145 nM
same,inhibition at 0.1 µM,"ATF4; 3 h with 100 nM thapsigargin (Tg) and 100 nM test compound, Tg alone 0%, untreated 100%",35%
same,inhibition at 1 µM,"ATF4; 3 h with 100 nM thapsigargin (Tg) and 1 μM test compound, Tg alone 0%, untreated 100%",77%
same,activity at 0.1 µM,"CHO cells; CHO cells stressed with 300 nM Tg, Tg alone 0%, read-out: % Recovery of protein expression (100 nM test compound)",69.4%
same,activity at 1 µM,"CHO cells; CHO cells stressed with 300 nM Tg, Tg alone 0%, read-out: % Recovery of protein expression (1 μM test compound)",155%
same,activity at 1 µM,"CHO cells; unstressed CHO cells, 2 h, read-out: % Protein expression relative to untreated (1 μM test compound)",162%
